Like-named read-outs stand apart in the source and are kept apart here.
Legend:
[1] = cited from earlier work
[2] = cited from earlier work; remark: listed apart in the source
[3] = 20° C.; cited from earlier work
[4] = system: Coniophora puteana; test: Rot jar test of glueline treated Pinus radiata plywood (AWPC 2007); conditions: Example 10, glueline rate giving 50% inhibition of weight loss, regression
Procedure: (§1) The end points used were EC90 or EC50, the concentration producing 90% or 50% inhibition of growth or weight loss resulting from fungal growth. EC values were calculated by regression analysis of dose response data using the GraphPad Prism software package (GraphPad Software, Inc., 5755 Oberlin Drive #110, San Diego, Calif. 92121, USA). EC90 values are expressed in ppm and EC50 values are expressed in gai/m^3.
Efficacy as a glueline fungicide was tested in plywood manufactured with phenol formaldehyde (PF), a typical resin used in engineered wood products. The wood type was Pinus radiata sapwood, which, like many softwoods, is rapidly degraded by decay organisms, if not protected. […]
(§2) In order to examine the interaction between triadimefon and cyproconazole in the glueline a synergy trial was performed using plywood manufactured with fungicide-supplemented PF resin and the rot jar method described above. Six glueline rates (expressed as gai/m^3) of triadimefon alone, cyproconazole alone, triadimefon+cyproconazole (10:1) and triadimefon+cyproconazole (6:1) were used to establish EC50 values by regression analysis. Synergy was determined by the Wadley method as described above using the EC50 values. […]

[5] = system: Tyromyces palustris; test: as above
Procedure: (§3) Efficacy as a glueline fungicide was tested in plywood manufactured with phenol formaldehyde (PF), a typical resin used in engineered wood products. The wood type was Pinus radiata sapwood, which, like many softwoods, is rapidly degraded by decay organisms, if not protected. Five 3.2 mm rotary-peeled veneers were laid up with fungicide-containing PF resin at a typical commercial glue spread rate (250 g/m^2), cold pressed for 10 minutes then hot pressed for 12 minutes at 135° C. and […]. Test specimens (25 mm×25 mm×16 mm) were cut, then leached for 14 days according to EN 84 before conducting a three month “rot jar test” as specified by the Australasian Wood Preservation Committee (Laboratory Decay Test for Hazard Classes H3, H4 and H5, AWPC, 2007). Untreated controls contained no fungicide.
Plywood was manufactured following the procedure in Example 7 using triadimefon and triadimenol as the glueline fungicides and tested by the rot jar method after leaching. […]

[6] = system: Antrodia xantha; test: as above; conditions: for Percentage weight loss: rot jar after leaching
Procedure: as §1, §3
(§4) Plywood was manufactured following the procedure in Example 7 using triadimefon and triadimenol as the glueline fungicides and tested by the rot jar method after leaching.
(§5) In order to examine the interaction between triadimefon and cyproconazole in the glueline a synergy trial was performed using plywood manufactured with fungicide-supplemented PF resin and the rot jar method described above. Six glueline rates (expressed as gai/m^3) of triadimefon alone, cyproconazole alone, triadimefon+cyproconazole (10:1) and triadimefon+cyproconazole (6:1) were used to establish EC50 values by regression analysis. Synergy was determined by the Wadley method as described above using the EC50 values.
(§6) Plywood 29 mm thick was manufactured from seven 4.3 mm rotary peeled Pinus radiata sapwood veneers using PF resin supplemented with various rates of triadimefon plus cyproconazole at a 10:1 ratio. […] The finished plywood was then sprayed with the same mixtures to cover the top and bottom faces of the plywood. Test specimens (25 mm×25 mm×29 mm) were cut, leached and tested by the rot jar method as described in Example 7.

[7] = system: Fomitopsis lilacino-gilva; test: as above
Procedure: as §1, §3, §4, §5, §6

[8] = system: Coniophora puteana (Brown rot); test: Malt extract agar plate growth inhibition; format: cell-based; conditions: Example 6, 8 days growth
Procedure: as §1, with “gai/m^3. […]” for “gai/m^3.”

[9] = system: Antrodia xantha (Brown rot); test: Malt extract agar plate growth inhibition; format: cell-based
Procedure: as §1, with “gai/m^3. […]” for “gai/m^3.”

[10] = cited from earlier work; remark: listed apart in the source
[11] = system: Serpula lacrymans; test: Rot jar test of glueline treated Pinus radiata plywood (AWPC 2007); conditions: for Percentage weight loss: leached, three month rot jar
Procedure: as §1, §3, §2

[12] = system: Serpula lacrymans (Dry rot); test: Malt extract agar plate growth inhibition; format: cell-based
Procedure: as §1, with “gai/m^3. […]” for “gai/m^3.”
(§7) Further EC90 values were determined for this example in a standard manner.

[13] = system: Tyromyces palustris (Brown rot); test: Malt extract agar plate growth inhibition; format: cell-based; conditions: Example 5, 4 days growth
Procedure: as §1, with “gai/m^3. […]” for “gai/m^3.”
as §7

[14] = system: Poria placenta (Brown rot); test: Malt extract agar plate growth inhibition; format: cell-based
Procedure: as §1, with “gai/m^3. […]” for “gai/m^3.”
as §7

[15] = system: Pycnoporus coccineus (White rot); test: Malt extract agar plate growth inhibition; format: cell-based
Procedure: as §1, with “gai/m^3. […]” for “gai/m^3.”
as §7

[16] = system: Gloeophyllum abietinum (Brown rot); test: Malt extract agar plate growth inhibition; format: cell-based; conditions: Example 5, 7 days growth
Procedure: as §1, with “gai/m^3. […]” for “gai/m^3.”
as §7

[17] = system: Trametes versicolor (White rot); test: Malt extract agar plate growth inhibition; format: cell-based; conditions: Example 4, 5 days at 25° C.
Procedure: as §1
(§8) Decay fungi were grown on malt extract agar plates for 5 days at 25° C. in the presence of triadimefon alone or triadimenol alone (A), cyproconazole alone (B), and the pairs of mixtures shown in Table 2.

[18] = system: Fomitopsis lilacino-gilva (Brown rot); test: Malt extract agar plate growth inhibition; format: cell-based; conditions: Example 4, 5 days at 25° C.
Procedure: as §1, §8

[19] = system: Decay fungi; test: Malt extract agar plate growth test, statements over all decay fungi tested; format: cell-based; conditions: Example 4, EC90, Antrodia xantha, Fomitopsis lilacino-gilva, Trametes versicolor
Procedure: as §1, §8, §7

[20] = system: Chondrostereum purpureum; conditions: cited from earlier work
[21] = system: Trichoderma viride; conditions: cited from earlier work
[22] = cited from earlier work; remark: listed apart in the source
[23] = system: Coriolus versicolor; conditions: cited from earlier work
[24] = system: human and yeast CYP51 (lanosterol-14α-demethylase); conditions: cited from earlier work; for relative selectivity for the fungal enzyme (in words): based on the IC50 ratio human/yeast; for ratio of IC50 values (human/yeast) against CYP51: human CYP51 IC50 / yeast (Candida albicans) CYP51 IC50
[25] = Example 7, glueline 62.5 gai/m3, PF plywood, leached, three month rot jar
[26] = Example 7, glueline 125 gai/m3, PF plywood, leached, three month rot jar
[27] = Example 7, glueline 250 gai/m3, PF plywood, leached, three month rot jar
[28] = Example 7, glueline 500 gai/m3, PF plywood, leached, three month rot jar
[29] = Example 8, glueline 250 gai/m3, PF plywood, rot jar after leaching
[30] = Example 8, glueline 500 gai/m3, PF plywood, rot jar after leaching
[31] = Example 8, glueline 1000 gai/m3, PF plywood, rot jar after leaching
[32] = Example 8, glueline 2000 gai/m3, PF plywood, rot jar after leaching
[33] = Example 8, glueline 250 gai/m3, PF plywood
[34] = Example 8, glueline 500 gai/m3, PF plywood
[35] = Example 8, glueline 1000 gai/m3, PF plywood
[36] = Example 8, glueline 2000 gai/m3, PF plywood
[37] = Example 9, glueline rate giving 50% inhibition of weight loss, six rates, regression
[38] = in words, temperature not given

Compound: CC(C)(C)C(=O)C(Oc1ccc(Cl)cc1)n1cncn1 (racemic) [Triadimefon]
- Stability, hydrolysis DT50 ([1]; pH 4,7,9): DT50 >1 y pH 4,7,9
- Sol. DCM ([2]; 20° C.): >200 g/L (20° C.)
- Sol. hexane ([2]; 20° C.): 6.3 g/L (20° C.)
- Sol. toluene ([2]; 20° C.): >200 g/L (20° C.)
- Sol. Water [3]: 64 mg/L (20° C.)
- EC50(obs) [4]: 2591144 gai/m^3
- Percentage weight loss [5, 25]: 28.7%
- Percentage weight loss [5, 26]: 29.2%
- Percentage weight loss [5, 27]: 16.5%
- Percentage weight loss [5, 28]: 7.6%
- Percentage weight loss [5, 29]: 14.2%
- Percentage weight loss [5, 30]: 10.7%
- Percentage weight loss [5, 31]: 2.0%
- Percentage weight loss [5, 32]: 0.4%
- Percentage weight loss [6, 33]: 29.4%
- Percentage weight loss [6, 34]: 20.3%
- Percentage weight loss [6, 35]: 12.5%
- Percentage weight loss [6, 36]: 6.1%
- EC50(obs) [6, 37]: 248 gai/m^3
- Percentage weight loss [7, 25]: 17.8%
- Percentage weight loss [7, 26]: 16.7%
- Percentage weight loss [7, 27]: 10.3%
- Percentage weight loss [7, 28]: 8.2%
- Percentage weight loss [7, 29]: 19.1%
- Percentage weight loss [7, 30]: 13.8%
- Percentage weight loss [7, 31]: 5.1%
- Percentage weight loss [7, 32]: 3.6%
- EC50(obs) [7, 37]: 121 gai/m^3
- EC90(obs) [8]: 27.4 ppm
- EC90(obs) ([9]; Example 4, 5 days at 25° C.): 2.56 ppm
- EC90(obs) ([9]; Example 6, 8 days growth): 2.52 ppm
- Kow (log P) [10]: 3.11
- Percentage weight loss ([11]; Example 7, glueline 62.5 gai/m3, PF plywood): 42.4%
- Percentage weight loss ([11]; Example 7, glueline 125 gai/m3, PF plywood): 43.8%
- Percentage weight loss ([11]; Example 7, glueline 250 gai/m3, PF plywood): 42.2%
- Percentage weight loss ([11]; Example 7, glueline 500 gai/m3, PF plywood): 44.9%
- EC50(obs) [11, 37]: 14328 gai/m^3
- EC90(obs) ([12]; Example 5, 5 days growth): 26.4 ppm
- EC90(obs) ([12]; Example 6, 8 days growth): 26.3 ppm
- EC90(obs) [13]: 4.48 ppm
- EC90(obs) ([14]; Example 5, 5 days growth): 0.82 ppm
- EC90(obs) ([14]; Example 6, 6 days growth): 1.08 ppm
- EC90(obs) ([15]; Example 5, 4 days growth): 0.34 ppm
- EC90(obs) ([15]; Example 6, 6 days growth): 0.70 ppm
- EC90(obs) [16]: 17.2 ppm
- EC90(obs) [17]: 1.52 ppm
- EC90(obs) [18]: 1.48 ppm

Compound: CC(C)(C)C(O)C(Oc1ccc(Cl)cc1)n1cncn1 (centres unmarked) [Triadimenol]
- Stability, hydrolysis DT50 ([1]; pH 4): DT50 >1 y pH 4,7,9
- Percentage weight loss [5, 29]: 9.6%
- Percentage weight loss [5, 30]: 6.5%
- Percentage weight loss [5, 31]: 0.9%
- Percentage weight loss [5, 32]: 0.3%
- Percentage weight loss [6, 33]: 24.7%
- Percentage weight loss [6, 34]: 18.4%
- Percentage weight loss [6, 35]: 11.2%
- Percentage weight loss [6, 36]: 1.0%
- Percentage weight loss [7, 29]: 9.0%
- Percentage weight loss [7, 30]: 5.1%
- Percentage weight loss [7, 31]: 1.6%
- Percentage weight loss [7, 32]: 0.9%
- EC90(obs) ([9]; Example 4, 5 days at 25° C.): 1.12 ppm
- efficacy acting alone relative to triadimefon acting alone [19]: two to ten times more efficacious
- sensitivity of the fungus (in words) [20]: sensitive
- sensitivity of the fungus (in words) [21]: insensitive
- Henry ([22]; triadimenol form A): 3 × 10^−6 P m^3 mo1^−1
- Henry ([22]; triadimenol form B): 4 × 10^−6 P m^3 mo1^−1
- EC90(obs) ([12]; Example 5, 5 days growth): 42.8 ppm
- EC90(obs) [13]: 1.26 ppm
- EC90(obs) ([14]; Example 5, 5 days growth): 0.84 ppm
- EC90(obs) ([15]; Example 5, 4 days growth): 0.10 ppm
- EC90(obs) [16]: 1.80 ppm
- sensitivity of the fungus (in words) [23]: sensitive
- relative selectivity for the fungal enzyme (in words) [24]: moderately selective
- ratio of IC50 values (human/yeast) against CYP51 [24]: 113
- EC90(obs) [17]: 0.15 ppm
- EC90(obs) [18]: 0.37 ppm

Compound: Propiconazole
- Sol. hexane ([2]; 25° C.): 47 g/L (25° C.)
- Sol. DCM [2, 38]: Completely misc
- Sol. toluene [2, 38]: Completely misc
- Sol. Water [3]: 100 mg/L (20°)
- Kow (log P) [10]: 3.72
- relative selectivity for the fungal enzyme (in words) [24]: moderately selective
- ratio of IC50 values (human/yeast) against CYP51 [24]: 55

From US9826740B2, “Synergistic fungicidal compositions and methods of use” (ZELAM LIMITED, priority 2010, dated 2017)
